Columns and labels:
interleukin 1 beta = test: PBBI in rats: IL-1beta ELISA; type: in vivo; conditions: 30 mg/kg oral gavage once daily
Text: The unilateral frontal PBBI model, which mimics the ballistic dynamics of a bullet or fragment wound to the head (Williams, 2003; Williams, 2006), was induced by stereotactic insertion of a custom probe through the right frontal cortex. A temporary cavity was formed by the rapid inflation/deflation (i.e. <40 msec) of an elastic balloon attached to the end of the probe. The PBBI apparatus consisted of a computer-controlled hydraulic pressure generator (Mitre Corp McLean, Va.), a PBBI probe and a stereotaxic frame equipped with a custom-designed probe holder as previously described (Lu, 2009; Williams, 2003). The injury severity was determined by the size of the balloon under control of the computerized hydraulic pressure. The balloon diameter calibrated to 0.63 cm expansion represented 10% of the total rat brain volume thus expressing a 10% PBBI. All surgeries were done under anaesthesia. Groups tested: Sham+vehicle, PBBI+vehicle, PBBI+cG-2-AllylP (30 mg/kg by oral gavage, 30 min post-injury, and again once daily until endpoint). […]
Target proteins were quantified with interleukin 1 beta (“IL-1beta”) (GenWay Biotech GWB-SKR107) and interleukin-6 (“IL-6”) (GenWay Biotech GWB-ZZD100) ELISAs according to manufacturer's instructions. Levels were calculated and normalized to total protein concentration as determined by BCA assay (n=9-10 per group).

[1] = test system: animals with scopolamine-induced memory impairment; test: Morris Water Maze (MWM) test with scopolamine-induced memory impairment; type: in vivo, Wistar rats; conditions: 30 mg/kg; daily; oral
Text: The first part of the study involved acute testing of cG-2-AllylP in the Morris Water Maze Memory (MWM) model. The MWM test is one of the most frequently used tests for assessing spatial memory in rats and is well recognized to accurately predict effects of disease and treatment on spatial memory generally. Therefore, the MWM test reflects effects of disease and treatment in human subjects. The standard procedure for MWM was followed. We used a circular swimming pool (80 cm depth×150 cm diameter) filled with opaque water, with the temperature maintained at 20° C. […] On days 1-4 of the experiment rats underwent memory acquisition trials with 6 trials (60 seconds each) in each day of testing (habituation phase). Latency to reach the platform was recorded and the daily reduction of average latency was used to measure the capability to learn where the hidden platform was. […] Experimental groups are detailed in the Table 4 below. On […], the probe MWM test was performed with the platform removed. There were 6 trials, each of maximum duration of 60s, at least 3 min rest between trials). […] Data was collected and analysed using Any-maze (v4.2) software. The data generated from behavioural tests was analysed using one-way ANOVA for determining the difference between the aged-groups. […]

C=CC[C@]12CCCN1C(=O)CNC2=O [cG-2-AllylP, (8aS)-Allyl-hexahydropyrrolo[1,2-a]pyrazine-1,4-dione]
IL1-beta levels (interleukin 1 beta; 3 days after PBBI): increased IL1-beta levels at 3 days after PBBI | IL1-beta levels (interleukin 1 beta; 7 days after PBBI): decreased levels of IL1-beta at 7 days after PBBI | cognitive impairment induced by scopolamine (MWM) [1]: significantly reversed the cognitive impairment induced by scopolamine

From patent US11197856B2, “Bicyclic compounds and methods for their use in treating autism” (priority 2013, dated 2021)
